Reference: patent US8673890B2, “2,3-dihydro-1H-isoindol-1-imine derivatives useful as thrombin PAR-1 receptor antagonist” (Janssen Pharmaceutica NV, priority 2009, dated 2014)
“And” between values parts separate entries of the source, which are not always exact repeats. Identical values can stand only once.

Key:
[1] = target: T1, thrombin receptor (PAR-1) (Homo sapiens, UniProt P25116); test: FLIPR-based calcium-flux assay with human smooth muscle cells (Har peptide agonist); assay type: cell-based; conditions: HSMC; 30 nM Har (PAR1) peptide agonist; 80-min drug incubation; multiple values = individual measurements
T1 construct: Human aortic smooth muscle cells (HSMC) were purchased from Cascade Biologics; host or cells: human aortic smooth muscle cells (HSMC)
T1 sequence (P25116 22-425): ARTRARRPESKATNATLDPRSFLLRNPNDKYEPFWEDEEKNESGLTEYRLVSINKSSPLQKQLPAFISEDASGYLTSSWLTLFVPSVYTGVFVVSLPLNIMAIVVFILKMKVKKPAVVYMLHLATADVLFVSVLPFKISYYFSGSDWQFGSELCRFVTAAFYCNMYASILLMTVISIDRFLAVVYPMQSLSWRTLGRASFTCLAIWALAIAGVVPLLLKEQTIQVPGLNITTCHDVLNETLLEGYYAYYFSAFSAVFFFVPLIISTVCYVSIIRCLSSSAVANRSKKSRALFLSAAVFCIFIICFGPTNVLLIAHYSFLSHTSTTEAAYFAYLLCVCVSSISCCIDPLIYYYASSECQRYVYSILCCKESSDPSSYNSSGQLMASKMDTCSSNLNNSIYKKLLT
Experimental: Human aortic smooth muscle cells (HSMC) were purchased from Cascade Biologics (Portland, Oreg.) and cultured in M-231 containing smooth muscle cell growth supplement and 1× Antibiotic-Antimycotic.
To determine agonist concentration for compound testing: On the day prior to the assay, 100 μL of cells (2×10^5/mL) were seeded in clear, flat-bottom black-wall, tissue culture treated polystyrene 96-well plates and incubated at 37° C., 5% CO2. On the day of the assay, 50 μL of complete dye loading solution (FLIPR Calcium 3 Kit, Molecular Devices) was added to each well containing 100 μL of culture media. The cells were incubated for 30-45 min at 37° C., in 5% CO2 before initiating the assay on the FLIPR. The agonist effect of PAR1 peptide (S-(p-F-Phe)-Har-L-Har-KY-NH2; Har=homoarginine; referred to herein as “Har” peptide) was tested and the EC50 was determined. The EC60-70 dose was used (30 nM) for compound testing.
Compound testing: On the day prior to the assay, 90 μL of cells (2.2×10^5/mL) were seeded in clear, flat-bottom black-wall, tissue culture treated polystyrene 96-well plates and incubated at 37° C., 5% CO2. On the day of the assay, the test compounds were prepared at 10× in 3% DMSO Hanks buffer and 10 μL was added to each well (final DMSO concentration of 0.3%). The cells were incubated 20 min at 37° C., 5% CO2. Culture medium containing testing compounds was dumped and the cells were washed four times with DPBS containing 0.1% of BSA and re-fed with 80 μL of growth medium. 70 μL of BD (fluorescent) dye was loaded to the cells and incubated 45 min at 37° C. incubator. The plates were equilibrated to room temperature for 15 min. 4× PAR1 peptide (30 nM final concentration) agonist plate and the cell plate were placed in FLIPR's assay chamber. 50 μL agonist was added to the cells and data was recorded for 5 min. Raw fluorescence data was exported for each well and tabulated versus time within an ASCII file. Data was then imported into Excel® and the peak response over basal level was determined. The percent inhibition for each test compound was calculated by the changes of fluorescent density as a % inhibition of the control Har peptide response to obtain an IC50.
(§1) Representative compounds of the present invention were tested according to the procedure described in Biological Example 1 above, with results in Table 8 below. In Table 8 below, where multiple values are listed for a particular compound, said numbers represent individual measurements (tests) for said compound.

washed platelets [2] = test: Thrombin-induced platelet aggregation in washed platelets; assay type: cell-based, human; conditions: for IC50: Homo sapiens, Platelet
Experimental: (§2) Platelet aggregation studies were performed according to the method of Bednar et al. (Bednar, B., Condra, C., Gould, R. J., and Connolly, T. M., Thromb. Res., 77:453-463 (1995)). Platelet-rich plasma (PRP) concentrates prepared from healthy volunteers who were aspirin free for at least 7 days by venipuncture using ACD-A as anticoagulant was purchased from Biological Specialties, Inc. (Colmar, Pa.). PRP was centrifuged at 730 g for 15 min. The platelet pellet was washed twice in CGS buffer (13 mM sodium citrate, 30 mM glucose, 120 mM NaCl, pH 6.5) containing 1 U/ml apyrase (grade V, Sigma-Aldrich, St. Louis, Mo.), 1 mM EGTA, and re-suspended in Tyrode's buffer (140 mM NaCl, 2.7 mM KCl, 12 mM NaHCO3, 0.76 mM Na2HPO4, 5.5 mM dextrose, 5.0 mM HEPES, 0.2% BSA, pH 7.4). The platelets were diluted to 3×10^8 platelets/ml and kept >45 min at 37° C. before use. 105 μl of washed platelets, 2 mM CaCl2 and […] of fibrinogen (for PAR-1 peptide-induced platelet aggregation only) were added to a 96-well microliter plate. Platelet aggregation was initiated by the addition of serial concentrations of Har peptide or thrombin (Alpha; American Diagnostica, Cat. # 470HT, 2,500 NIH Units/mg). Buffer was added to one set of control wells. The assay plate was stirred constantly and intermittently placed in a microplate reader (Softmax, Molecular Devices, Menlo Park, Calif.) to read optical density (650 nm) at 0 and 5 minutes after the addition of the compound solutions. Aggregation was calculated as the decrease in optical density between the time 0- and 5-min measurements and expressed as % of aggregation.
(§3) For the inhibition assay, platelet aggregation measurements were conducted as described, with the additional step of test compound addition. Compounds were prepared in 100% DMSO and stored. On the day of the experiment, the compounds were diluted in the Tyrode's buffer containing 3% of DMSO as a 10× working solution. 15 μl of test compound solutions were added to 105 μl of platelets 5 min prior to CaCl2 and fibrinogen additions. Platelet aggregation was initiated by the addition of agonist shown to achieve 60-70% aggregation. Antagonist potency was estimated as a % inhibition of the control Har peptide or thrombin response to obtain an IC50.
as §1, with “2” for “1”, “9” for “8”, “9” for “8 below,”

washed platelets [3] = test: Har peptide-induced platelet aggregation in washed platelets; assay type: cell-based; conditions: Homo sapiens
Experimental: as §2, §3
as §1, with “2” for “1”, “9” for “8”, “9” for “8 below,”

[4] = tested on: platelets in platelet-rich plasma; test: Thrombin-induced platelet aggregation in platelet-rich plasma; assay type: cell-based, human; conditions: for IC50: multiple values = individual measurements; for inhibition at 10 µM: 10 μM compound
Experimental: (§4) The procedure for this assay is similar to that described in Biological Example 2, above. Briefly, platelet aggregation studies were performed according to the method of Bednar et al. (Bednar, B., Condra, C., Gould, R. J., and Connolly, T. M., Thromb. Res., 77:453-463 (1995)). Platelet-rich plasma (PRP) concentrates prepared from healthy volunteers who were aspirin free for at least 7 days by venipuncture using EDTA as anticoagulant was purchased from Biological Specialties, Inc. (Colmar, Pa.). PPP (platelet-poor-plasma) was obtained by centrifugation of PRP at Max (3,000 rpms) for 15 min at room temperature. PRP was diluted to yield platelet count of 300×10^3 platelets/μL with PPP. For thrombin induced platelet aggregation: 118 μL of 500 mM GPRP-NH2 was added to 12 mL of 300×10^3 platelets before using (to clean the fibrinogen in the plasma.) GPRP was added just before the experiment. 15 μL of test compound solutions were added to 120 μL of platelets 5 min prior the agonist additions. Platelet aggregation was initiated by the addition of agonist shown to achieve 60-70% aggregation. Antagonist potency was estimated as a % inhibition of the control Har peptide or thrombin response to obtain an IC50.
(§5) Where multiple values are listed for a particular compound, said numbers represent individual measurements (tests) for said compound.

[5] = tested on: platelets in platelet-rich plasma; test: Har peptide-induced platelet aggregation in platelet-rich plasma; assay type: cell-based, human; conditions: for IC50: multiple values = individual measurements
Experimental: as §4, §5

| Structure (SMILES) | IC50 [1] | Washed platelet aggregation IC50 (μM) Thrombin (washed platelets [2]) | IC50 (washed platelets [3]) | IC50 ([4]; Homo sapiens, Platelet) | IC50 [4] | IC50 ([5]; Homo sapiens, Platelet) | inhibition at 10 µM ([4]; Homo sapiens) | IC50 [5] | IC50 (washed platelets [2]) | inhibition at 10 µM ([5]; Homo sapiens, 10 μM compound) |
| --- | --- | --- | --- | --- | --- | --- | --- | --- | --- | --- |
| Cc1sc(C)c2c1COc1cc3c(cc1OC2)C(=N)N(CC(=O)c1cc(C(C)(C)C)c(O)c(C(C)(C)C)c1)C3 [Compound 74] | 0.15 µM and 0.16 µM | variable | 0.779 µM | > 10 µM | > 10 µM | > 10 µM |  |  |  |  |
| CC(C)(C)c1cc(C(=O)CN2Cc3cc4c(cc3C2=N)OCc2ncccc2CO4)ccc1O [Compound 82] | 0.11 µM and 0.17 µM |  |  | 2.57 µM |  | 0.64 µM | 21% | 0.93 µM |  |  |
| CC(C)(C)c1cc(C(=O)CN2Cc3cc4c(cc3C2=N)OCc2cc(C(=O)O)ccc2CO4)cc(C(C)(C)C)c1O [Compound 72] | 0.25 µM and 0.14 µM |  |  | > 10 µM |  | > 10 µM |  | > 10 µM |  |  |
| COc1c(C(C)(C)C)cc(C(=O)CN2Cc3cc4c(cc3C2=N)OCc2cccnc2CO4)cc1C(C)(C)C [Compound 76] | 0.58 µM |  | 0.309 µM | > 10 µM | > 10 µM | 2.06 µM |  |  | > 10 µM |  |
| COc1c(N2CCOCC2)cc(C(=O)CN2Cc3cc4c(cc3C2=N)OCc2nccnc2CO4)cc1C(C)(C)C [Compound 58] | 0.103 µM |  | 0.214 µM | 0.803 µM |  | 0.749 µM |  |  | 0.304 µM |  |
| CC(C)(C)c1cc(C(=O)CN2Cc3cc4c(cc3C2=N)OCC(F)(F)CO4)cc(C(C)(C)C)c1O [Compound 93] | 0.27 µM and 0.13 µM |  |  | > 10 µM | > 10 µM | 2.08 µM |  | 3.8 µM |  |  |
| COc1c(N2CCOCC2)cc(C(=O)CN2Cc3cc4c(cc3C2=N)OCC(F)(F)CO4)cc1C(C)(C)C [Compound 92] | 0.53 µM and 0.36 µM |  |  | > 10 µM | > 10 µM |  |  |  |  | 24% |
| COc1c(N2CCOCC2)cc(C(=O)CN2Cc3cc4c(cc3C2=N)OCC(F)(F)C(F)(F)CO4)cc1C(C)(C)C [Compound 90, 1-(3-tert-butyl-4-methoxy-5-morpholinophenyl)-2-(3,3,4,4-tetrafluoro-8-imino-4,5-dihydro-2H-[1,4]-dioxocino[2,3-f]isoindol-9(3H,8H,10H)-yl)ethanone] | 0.68 µM and 0.2 µM and 0.57 µM |  |  | > 10 µM |  | 2.56 µM | 30% | 4.45 µM |  |  |
| COc1c(N2CCN(C)CC2)cc(C(=O)CN2Cc3cc4c(cc3C2=N)OCc2cccnc2CO4)cc1C(C)(C)C [Compound 71] | 0.064 µM and 0.044 µM |  |  | 0.38 µM |  | 0.29 µM |  | 0.48 µM |  |  |
